According to US10780090B2, “Heteroaryl compounds useful as inhibitors of SUMO activating enzyme” (Millennium Pharmaceuticals, Inc., priority 2014, dated 2020):

Target: recombinant human SAE enzyme (Homo sapiens (Human), UniProt Q9UBT2)
Experiment: SAE HTRF enzyme assay
Assay type: biochemical
Conditions: for inhibition at 0.111 µM: read-out: Percent Inhibition
How it was run: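 0.11 nM SAE incubated with 0.5 μM ATP, 0.01 μM Ubc9-GST and 0.125 μM Sumo-Flag in HEPES pH 7.5, MgCl2, GSH, BSA, ±inhibitor, 105 min at 24° C. EDTA stop; Eu-cryptate anti-Flag/XL-APC anti-GST HTRF read after 2 h. Values given as single-concentration % inhibition or IC50.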

recombinant human SAE enzyme, sequence (Q9UBT2 whole entry): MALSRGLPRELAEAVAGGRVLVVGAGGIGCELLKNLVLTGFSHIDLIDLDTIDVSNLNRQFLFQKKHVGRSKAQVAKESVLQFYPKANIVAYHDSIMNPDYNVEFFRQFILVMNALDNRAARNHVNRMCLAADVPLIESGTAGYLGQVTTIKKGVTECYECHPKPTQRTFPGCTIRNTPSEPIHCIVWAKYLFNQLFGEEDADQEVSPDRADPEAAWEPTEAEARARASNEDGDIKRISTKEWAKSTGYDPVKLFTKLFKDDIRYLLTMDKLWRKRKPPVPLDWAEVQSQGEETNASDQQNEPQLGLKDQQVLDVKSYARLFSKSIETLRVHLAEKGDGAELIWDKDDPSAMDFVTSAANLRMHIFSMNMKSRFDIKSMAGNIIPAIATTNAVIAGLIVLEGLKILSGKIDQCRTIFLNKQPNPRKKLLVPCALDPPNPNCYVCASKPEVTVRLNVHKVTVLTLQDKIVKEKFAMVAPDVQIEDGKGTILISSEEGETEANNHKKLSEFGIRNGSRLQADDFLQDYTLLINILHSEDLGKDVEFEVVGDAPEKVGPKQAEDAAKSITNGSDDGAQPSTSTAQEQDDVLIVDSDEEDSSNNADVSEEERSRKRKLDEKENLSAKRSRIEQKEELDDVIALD
recombinant human SAE enzyme, sequence (Q9UBE0 whole entry partner): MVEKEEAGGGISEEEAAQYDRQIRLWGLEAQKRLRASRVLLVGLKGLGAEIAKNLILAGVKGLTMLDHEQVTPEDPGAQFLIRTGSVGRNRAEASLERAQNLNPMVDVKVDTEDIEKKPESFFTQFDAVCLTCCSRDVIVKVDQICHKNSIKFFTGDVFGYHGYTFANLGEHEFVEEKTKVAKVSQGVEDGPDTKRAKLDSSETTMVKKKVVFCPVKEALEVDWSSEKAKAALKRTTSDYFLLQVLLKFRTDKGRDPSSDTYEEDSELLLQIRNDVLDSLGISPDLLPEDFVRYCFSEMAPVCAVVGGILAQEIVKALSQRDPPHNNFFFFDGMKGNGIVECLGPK

| Compound | Percent Inhibition (Concentration 0.111 μM) | IC50 (class symbols A/B/C) [nM] | Percent Inhibition (SAE inhibition at compound concentration 0.111 μM) [%] | IC50 (SAE inhibition, class symbols, legend in nM) [nM] | inhibition at 0.111 µM (Concentration 0.111 μM) [%] |
| --- | --- | --- | --- | --- | --- |
| C[C@](O)(c1cccc(Cl)c1)c1coc(C(=O)c2cncnc2N[C@@H]2C[C@H](COS(N)(=O)=O)[C@@H](O)C2)c1 (single isomer, unassigned) [I-30b, {(1R,2S,4R)-4-[(5-{4-[(1S)-1-(3-chlorophenyl)-1-hydroxyethyl]-2-furoyl}pyrimidin-4-yl)amino]-2-hydroxycyclopentyl}methyl sulfamate or {(1R,2S,4R)-4-[(5-{4-[(1R)-1-(3-chlorophenyl)-1-hydroxyethyl]-2-furoyl}pyrimidin-4-yl)amino]-2-hydroxycyclopentyl}methyl sulfamate] | 88 | 10 to 100 | – | – | – |
| NS(=O)(=O)OC[C@H]1C[C@@H](Nc2ncncc2C(=O)c2cc([C@@H]3CCCc4ccc(Cl)cc43)cs2)C[C@@H]1O (single isomer, unassigned) [I-335a, [(1R,2S,4R)-4-{[5-({4-[(1R)-7-chloro-1,2,3,4-tetrahydronaphthalen-1-yl]-2-thienyl}carbonyl)pyrimidin-4-yl]amino}-2-hydroxycyclopentyl]methyl sulfamate or [(1R,2S,4R)-4-{[5-({4-[(1S)-7-chloro-1,2,3,4-tetrahydronaphthalen-1-yl]-2-thienyl}carbonyl)pyrimidin-4-yl]amino}-2-hydroxycyclopentyl]methyl sulfamate] | – | – | 14 | 100 to 1000 | – |
| Cc1sc(C(=O)c2cncnc2N[C@@H]2C[C@H](COS(N)(=O)=O)[C@@H](O)C2)cc1Cn1ccc(C#N)c1 [I-194, [(1R,2S,4R)-4-{[5-({4-[(3-cyano-1H-pyrrol-1-yl)methyl]-5-methyl-2-thienyl}carbonyl)pyrimidin-4-yl]amino}-2-hydroxycyclopentyl]methyl sulfamate] | – | 10 to 100 | – | – | 66 |
| NS(=O)(=O)OC[C@H]1C[C@@H](Nc2ncncc2C(=O)c2cc([C@H](O)c3cc(Br)ccc3F)cs2)C[C@@H]1O (single isomer, unassigned) [I-19a, [(1R,2S,4R)-4-{[5-({4-[(R)-(5-bromo-2-fluorophenyl)(hydroxy)methyl]-2-thienyl}carbonyl)pyrimidin-4-yl]amino}-2-hydroxycyclopentyl]methyl sulfamate or [(1R,2S,4R)-4-{[5-({4-[(S)-(5-bromo-2-fluorophenyl)(hydroxy)methyl]-2-thienyl}carbonyl)pyrimidin-4-yl]amino}-2-hydroxycyclopentyl]methyl sulfamate] | 98 | < 10 | – | – | – |
| NS(=O)(=O)OC[C@H]1C[C@@H](Nc2ncncc2C(=O)c2cc([C@@H](O)c3cccc(Cl)c3)co2)C[C@@H]1O.NS(=O)(=O)OC[C@H]1C[C@@H](Nc2ncncc2C(=O)c2cc([C@H](O)c3cccc(Cl)c3)co2)C[C@@H]1O (mixture of isomers) [I-42, {(1R,2S,4R)-4-[(5-{4-[(R)-(3-chlorophenyl)(hydroxy)methyl]-2-furoyl}pyrimidin-4-yl)amino]-2-hydroxycyclopentyl}methyl sulfamate and {(1R,2S,4R)-4-[(5-{4-[(S)-(3-chlorophenyl)(hydroxy)methyl]-2-furoyl}pyrimidin-4-yl)amino]-2-hydroxycyclopentyl}methyl sulfamate] | 98 | < 10 | – | – | – |
| NS(=O)(=O)OC[C@H]1C[C@@H](Nc2ncncc2C(=O)c2cc(Cc3ccccc3)c(Cl)s2)C[C@@H]1O [I-96, [(1R,2S,4R)-4-({5-[(4-benzyl-5-chloro-2-thienyl)carbonyl]pyrimidin-4-yl}amino)-2-hydroxycyclopentyl]methyl sulfamate] | – | – | – | – | 97 |
| NS(=O)(=O)OC[C@H]1C[C@@H](Nc2ncncc2C(=O)c2cc([C@H](O)c3cccc(Cl)c3)co2)C[C@@H]1O (single isomer, unassigned) [I-42a, {(1R,2S,4R)-4-[(5-{4-[(R)-(3-chlorophenyl)(hydroxy)methyl]-2-furoyl}pyrimidin-4-yl)amino]-2-hydroxycyclopentyl}methyl sulfamate or {(1R,2S,4R)-4-[(5-{4-[(S)-(3-chlorophenyl)(hydroxy)methyl]-2-furoyl}pyrimidin-4-yl)amino]-2-hydroxycyclopentyl}methyl sulfamate] | 97 | < 10 | – | – | – |
| NS(=O)(=O)OC[C@H]1C[C@@H](Nc2ncncc2C(=O)c2cc(Cc3ccccc3Cl)cs2)C[C@@H]1O [I-165, {(1R,2S,4R)-4-[(5-{[4-(2-chlorobenzyl)-2-thienyl]carbonyl}pyrimidin-4-yl)amino]-2-hydroxycyclopentyl}methyl sulfamate] | – | 10 to 100 | – | – | 91 |
| Cc1sc(C(=O)c2cncnc2N[C@@H]2C[C@H](COS(N)(=O)=O)[C@@H](O)C2)cc1[C@H](C)c1cccc(Cl)c1 (mixture of isomers) [I-135, [(1R,2S,4R)-4-{[5-({4-[(1R)-1-(3-chlorophenyl)ethyl]-5-methyl-2-thienyl}carbonyl)pyrimidin-4-yl]amino}-2-hydroxycyclopentyl]methyl sulfamate and [(1R,2S,4R)-4-{[5-({4-[(1S)-1-(3-chlorophenyl)ethyl]-5-methyl-2-thienyl}carbonyl)pyrimidin-4-yl]amino}-2-hydroxycyclopentyl]methyl sulfamate] | 94 | 10 to 100 | – | – | – |
| Cc1sc(C(=O)c2cncnc2N[C@@H]2C[C@H](COS(N)(=O)=O)[C@@H](O)C2)cc1[C@@H]1OCCc2ccc(Cl)cc21 [I-257b, [(1R,2S,4R)-4-{[5-({4-[(1R)-7-Chloro-3,4-dihydro-1H-isochromen-1-yl]-5-methyl-2-thienyl}carbonyl)pyrimidin-4-yl]amino}-2-hydroxycyclopentyl]methyl sulfamate] | – | < 10 | – | – | 99 |
| Cc1sc(C(=O)c2cncnc2N[C@@H]2C[C@H](COS(N)(=O)=O)[C@@H](O)C2)cc1[S@+]([O-])c1cccc(Cl)c1 (single isomer, unassigned) [I-28b, [(1R,2S,4R)-4-{[5-({4-[(R)-(3-chlorophenyl)sulfinyl]-5-methyl-2-thienyl}carbonyl)pyrimidin-4-yl]amino}-2-hydroxycyclopentyl]methyl sulfamate or [(1R,2S,4R)-4-{[5-({4-[(S)-(3-chlorophenyl)sulfinyl]-5-methyl-2-thienyl}carbonyl)pyrimidin-4-yl]amino}-2-hydroxycyclopentyl]methyl sulfamate] | 100 | < 10 | – | – | – |
| CC(O)(c1cccc(Cl)c1)c1ccc(C(=O)c2cncnc2NC2CC(O)C(COS(N)(=O)=O)C2)s1 (mixture of isomers) [I-152, [(1R,2S,4R)-4-{[5-({5-[(1R)-1-(3-chlorophenyl)-1-hydroxyethyl]-2-thienyl}carbonyl)pyrimidin-4-yl]amino}-2-hydroxycyclopentyl]methyl sulfamate and [(1R,2S,4R)-4-{[5-({5-[(1S)-1-(3-chlorophenyl)-1-hydroxyethyl]-2-thienyl}carbonyl)pyrimidin-4-yl]amino}-2-hydroxycyclopentyl]methyl sulfamate] | 93 | < 10 | – | – | – |
